In paper PMC6222829, “Synthesis, Molecular Docking and Anticancer Activity of Diflunisal Derivatives as Cyclooxygenase Enzyme Inhibitors” (Molecules : A Journal of Synthetic Chemistry and Natural …, 2018):
“Also recorded” adds a separate entry of the source.

What was measured:
HCT116 cell line = test: MTS cytotoxicity assay, HCT116; assay type: cell-based, human; conditions: for IC50: Homo sapiens, HCT-116, MTS assay, 72 h incubation
Experimental: (§1) In this project, the colorectal cancer cell line HCT116 (ATCC® CCL-247™), […] prostate cancer cell line PC-3 (ATCC® CRL-1435™), breast cancer cell lines T47D (ATCC® HTB-133™), MCF7 (ATCC® HTB-22™) and finally, epithelial embryonic kidney cell line HEK293 (ATCC® CRL-1573™) were used. All media were completed with %10 fetal bovine serum (FBS) and %1 penicillin streptomycin amphotericin (PSA). All cells were cultured periodically at 37 °C, 5% (v/v) CO2 and 95% (v/v) air in T-75 flasks. Different media were used for the different cell lines based on ATCC standards: MCF7 and HEK293 cell lines were cultured in DMEM High Mmedium (ATCC, 30-2003); T47D and PC-3 cell lines were cultured in RPM 1640 medium (ATCC, 30-2001); HCT116 cell line was cultured in DMEM F12 medium (ATCC, 30-2006). RPM 1640 medium was further completed with 0.2 unit/mL bovine insulin for the T47D cell line. Cells were passaged when they reached %80 confluency in order to support proliferation.
(§2) The effects of the synthesized compounds on the cell viability were tested. Stock solutions for each compound were prepared by measuring 20 mg of each compound and dissolving it in 1 mL DMSO to a final concentration of […], followed by filtration through a 0.2-μm filter (Sartorius AG, Gottingen, Germany). Then stock solutions were diluted as 1/10, 1/100 and 1/1000 in the designated media and applied on the cell lines. In order to determine the effect of DMSO itself, the same dilutions were performed by using DMSO, only and applied on the cell lines. Cell densities used for each cell line in 96 well plate were as follows: for PC-3, HCT116 and HEK293 cell lines 5000 cells/well; for T47D cell lines 20,000 cells/well. Cell viability was measured by the MTS cytotoxicity assay (CellTiter96 AqueousOne Solution; Promega, Southampton, UK) according to the manufacturer’s instructions. 3-(4,5-Dimethylthiazol-2-yl)-5-(3-carboxymethoxyphenyl)-2-(4-sulfo-phenyl)-2H-tetrazolium (MTS) is a yellow tetrazolium salt which is catabolized to formazan by dehydrogenase enzyme in the mitochondria of the living cells. Formazan is a purple compound and the detection in this assay is based on the measurement of formazan compounds by an ELISA plate reader. After incubating the cells for 72 h, 10 µL MTS reagent and 100 µL designated medium was given to the cells followed by 2 h of incubation at 37 °C. Thereafter, the absorbance at 490 nm was measured by an ELISA plate reader. (BioTek Instruments, Inc., Winooski, VT, USA). The activity doses of the compounds were determined according to 50% cell death rate when compared to DMSO, only after 72 h of incubation. […] IC50 values are calculated by the GraphPad prism software.

T47D cell line [1] = test: MTS cytotoxicity assay, T47D; assay type: cell-based, human; conditions: for IC50: Homo sapiens, T47D, MTS assay, 72 h incubation
Experimental: as §1, §2

PC-3 cell line [2] = test: MTS cytotoxicity assay, PC-3; assay type: cell-based, human; set-up: key to IC50 PC-3: PCV: Promoting cell viability; NSC: No significant change; conditions: for IC50: Homo sapiens, PC-3
Experimental: as §1, §2

HEK293 cell line [3] = test: MTS cytotoxicity assay, HEK293; assay type: cell-based, human; conditions: normal cell line; for IC50: Homo sapiens, HEK293, MTS assay, 72 h incubation
Experimental: as §1, §2

MCF7 cell line = test: MTS cytotoxicity assay, MCF7; assay type: cell-based; conditions: Homo sapiens, 72 h incubation
Experimental: as §1, §2

PC-3 cell line [4] = test: Annexin V/PI apoptosis assay, PC-3; assay type: cell-based, human; conditions: FITC-Annexin V/PI flow cytometry
Experimental: (§3) Evaluation of the effect of the synthesized compounds on apoptosis was determined by the FITCH-AnnexinV/PI protocol. Damaged cell membrane of necrotic cell enables propidium iodide (PI) to bind DNA and induces a red fluorescence, although it is excluded by non-damaged cells, select live and apoptotic cells. FITCH-Annexin V has the ability to bind to phosphatidylserine which is a specific marker of apoptosis. […] The lower left panel of the quadrant of the cytograms indicates live cells due to exclusion of PI and non-bound Annexin V.
(§4) The upper left panel of the cytogram represents necrotic cells which are positive for PI. Each cytogram of each cell was analyzed and a histogram graph was drawn for further visual information.
(§5) Determination of IC50 values was followed by the investigation of effect of the synthesized compounds on apoptosis. Cells were seeded into six well plates at densities of 15,000 cells/well (PC-3, HCT116 and HEK293 cell lines) and 60,000 cells/well (T47D cell lines). After the treatment cells were harvested and washed with ice cold PBS. 1 × Annexin-binding buffer was prepared while the cells were being washed. […] The incubation step was followed by adding 2 µL of the 100 µg/mL PI working solution to the proper groups then the fluorescence was observed by flow cytometry.

HEK293 cell line [5] = test: Annexin V/PI apoptosis assay, HEK293; assay type: cell-based; conditions: FITC-Annexin V/PI flow cytometry
Experimental: as §3, §4
Determination of IC50 values was followed by the investigation of effect of the synthesized compounds on apoptosis. Cells were seeded into six well plates at densities of 15,000 cells/well (PC-3, HCT116 and HEK293 cell lines) and 60,000 cells/well (T47D cell lines). After the treatment cells were harvested and washed with ice cold PBS. 1 × Annexin-binding buffer was prepared while the cells were being washed. Working solution of PI (100 µg/mL) was prepared as well by diluting 5 µL of the 1 mg/mL PI stock solution in 45 µL 1 × Annexin-binding buffer. After the precipitation of the cells, they were resuspended in 500 µL 1 × Annexin-binding buffer. Resuspended cells were separated into four groups (Annexin V, PI, Annexin V + PI and NC) each containing 100 µL of suspension. Five µL of the Annexin V conjugate was added to the proper groups. Samples were incubated for 15 min at room temperature. The incubation step was followed by adding 2 µL of the 100 µg/mL PI working solution to the proper groups then the fluorescence was observed by flow cytometry.

T47D cell line [6] = test: Annexin V/PI apoptosis assay, T47D; assay type: cell-based, human; conditions: FITC-Annexin V/PI flow cytometry
Experimental: as §3, §4, §5

SMILES	IC50 (HCT116 cell line)	IC50 (T47D cell line [1])	IC50 (PC-3 cell line [2]; MTS assay, 72 h incubation)	IC50 (HEK293 cell line [3])	IC50 (MCF7 cell line)	IC50 PC-3 (PC-3 cell line [2]; MTS assay, 72 h incubation)	apoptosis / necrosis, PC-3 (PC-3 cell line [4])	anticancer activity against PC-3 (in words) (PC-3 cell line [2])	cytotoxic effect on HEK293 (in words) (HEK293 cell line [3])	apoptosis / necrosis, HEK293 (HEK293 cell line [5])	anticancer activity against HCT-116 (in words) (HCT116 cell line)	apoptosis / necrosis, T47D (T47D cell line [6])	anticancer activity against T47D (in words) (T47D cell line [1])
O=C(NC(=S)NNC(=O)c1cc(-c2ccc(F)cc2F)ccc1O)c1ccccc1 [Compound 8, N-({2-[(2′,4′-Difluoro-4-hydroxybiphenyl-3-yl)carbonyl]hydrazinyl}carbonothioyl)benzamide]	3.68 ± 2.1 µM	8.07 ± 2 µM	2.85 ± 3.6 µM	5.04 ± 1.5 µM									
Oc1ccc(-c2ccc(F)cc2F)cc1-c1n[nH]c(=S)n1-c1cccc(F)c1 [Compound 12, 5-(2′,4′-Difluoro-4-hydroxybiphenyl-3-yl)-4-(3-fluorophenyl)-2,4-dihydro-3H-1,2,4-triazole-3-thione]		9.24 ± 1.01 µM	34 ± 2.1 µM	10.7 ± 0.96 µM	15 ± 1.3 µM								
COc1ccccc1NC(=S)NNC(=O)c1cc(-c2ccc(F)cc2F)ccc1O [Compound 9, 2-[(2′,4′-Difluoro-4-hydroxybiphenyl-3-yl)carbonyl]-N-(2-methoxyphenyl)hydrazine carbothioamide]	1.83 ± 0.92 µM	3.86 ± 0.7 µM	1.57 ± 1.4 µM	3.02 ± 1.9 µM	3.92 ± 0.27 µM								
Oc1ccc(-c2ccc(F)cc2F)cc1-c1n[nH]c(=S)n1-c1cccc(Br)c1 [Compound 14, 4-(3-Bromophenyl)-5-(2′,4′-difluoro-4-hydroxybiphenyl-3-yl)-2,4-dihydro-3H-1,2,4-triazole-3-thione]		11.5 ± 1.8 µM				PCV							
O=C(NNC(=S)Nc1cccc(Br)c1)c1cc(-c2ccc(F)cc2F)ccc1O [Compound 6, N-(3-Bromophenyl)-2-[(2′,4′-difluoro-4-hydroxybiphenyl-3-yl)carbonyl]hydrazine carbothioamide]		100 ± 2.3 µM	41.8 ± 3.4 µM	93 ± 3.43 µM			increase of late apoptosis markers; also recorded: undergo apoptosis highly	displayed anti-tumourigenic activity	did not show cytotoxic effects	did not result in apoptosis			
O=C(NNC(=S)Nc1cccc(Cl)c1)c1cc(-c2ccc(F)cc2F)ccc1O [Compound 5]				44.4 µM									
Oc1ccc(-c2ccc(F)cc2F)cc1-c1n[nH]c(=S)n1-c1ccc(Br)cc1 [Compound 15, 4-(4-Bromophenyl)-5-(2′,4′-difluoro-4-hydroxybiphenyl-3-yl)-2,4-dihydro-3H-1,2,4-triazole-3-thione]		43.4 ± 2.72 µM	145 ± 2.8 µM	145 ± 2.3 µM				did not show any activity	did not show cytotoxic effects	did not result in apoptosis	did not show any activity	vast late apoptosis; also recorded: largely through late apoptosis	demonstrated anticancer activity
